Key:
[1] = test system: NCI-H2052 Tet-On shYAP_2371 pLenti6 MCAT_Luc cells (YAP-dependent transcription); test: YAP reporter gene activity assay (MCAT-luciferase), NCI-H2052; format: cell-based; settings: Homo sapiens, NCI-H2052, 24 h, 24 hours incubation, BrightGlo luminescence
Method: (§1) This cell line was also transduced with a Tet-pLKO-puro-based construct mediating tetracycline-inducible expression of a short-hairpin directed against the 3′UTR of the YAP1 mRNA (5′-[…]-3′).
(§2) Stock solutions of compounds were prepared at a concentration of 10 mM in DMSO and stored at 4° C. Where necessary to afford a full dose-response curve, the stock solutions were pre-diluted in DMSO to 1'000-fold the desired reduced start concentration. On the day after cell seeding, eleven 2-fold serial dilutions of each compound were dispensed directly into the cell assay plates using a HP 300D non-contact Digital Dispenser (TECAN, Mannedorf, Switzerland). The final concentration of DMSO was normalized to 0.1% in all wells.
The ability of compounds to inhibit YAP-dependent transcription was assessed in NCI-H2052 Tet-On shYAP_2371 pLenti6 MCAT_Luc cells, while specificity (lack of unspecific inhibition of luciferase expression of activity) was assessed in MKN-45/Ubc-luc cells. […] Following incubation for 24 hours at 37° C., compound-mediated modulation of reporter-gene activity was quantified 5 min after addition of 20 μl BrightGlo (Promega, Cat #E2620), by measuring luminescence intensity on a multi-mode plate-reader (TECAN, Männedorf, Switzerland, Integration time 100 ms). For data analysis, the assay background value determined in wells containing medium, but no cells, was subtracted from all data points. Dose-dependent compound effects were expressed as % of vehicle-treated control (luminescence signal produced by cells receiving DMSO only) and IC50s calculated using a four-parametric fit model.

[2] = test system: NCI-H2052 Tet-On shYAP_2371 pLenti6 MCAT_Luc cells; test: Proliferation assay (resazurin), NCI-H2052; format: cell-based; settings: Homo sapiens, NCI-H2052, 72 h, 72 hours incubation
Method: as §1, §2
(§3) The functional effect of compounds on cell proliferation was assessed using NCI-H2052 Tet-On shYAP_2371 pLenti6 MCAT_Luc and MKN-45/Ubc-luc cells by quantifying the reducing capacity of live cells using the redox indicator dye resazurin. […] For data analysis, the assay background value determined in wells containing medium, but no cells, was subtracted from all data points. […] The effect of a particular test compound concentration on cell proliferation/viability was expressed as percentage of day 0-corrected fluorescence reading obtained for cells treated with vehicle only (DMSO, final concentration 0.1%), which was set as 100%, whereas the fluorescence reading for wells containing medium only, but no cells, was set as −100%. Compound concentrations leading to half-maximal growth inhibition (GI50) were determined using standard four parameter curve fitting.

[3] = test system: MKN-45/Ubc-luc cells; test: Proliferation assay (resazurin), MKN-45; format: cell-based; settings: Homo sapiens, 72 hours incubation
Method: As a specificity control, MKN-45 cells were stably transduced with a Ubc-Luc reporter construct, in which constitutive expression of firefly luciferase is driven by the promoter of the ubiquitin C housekeeping gene.
as §2, §3

[4] = test system: MKN-45/Ubc-luc cells; test: Reporter gene specificity control (Ubc-luciferase), MKN-45; settings: Homo sapiens, MKN-45, 24 h, read-out: Reporter gene assay MKN-45 IC50 [μM], MKN-45/Ubc-luc cells (YAP deleted, specificity control), 24 hours incubation
[5] = target: Avi-humanTEAD4 217-434 / Cy5 labeled humanYAP 60-100 (Homo sapiens (Human), UniProt Q15561); test: TR-FRET YAP-TEAD4 in-vitro biochemical assay; format: binding; settings: 1 nM Avi-humanTEAD4 217-434, 20 nM Cy5-humanYAP 60-100, 1 h room temperature
Avi-humanTEAD4 217-434 / Cy5 labeled humanYAP 60-100, sequence (Q15561 217-434): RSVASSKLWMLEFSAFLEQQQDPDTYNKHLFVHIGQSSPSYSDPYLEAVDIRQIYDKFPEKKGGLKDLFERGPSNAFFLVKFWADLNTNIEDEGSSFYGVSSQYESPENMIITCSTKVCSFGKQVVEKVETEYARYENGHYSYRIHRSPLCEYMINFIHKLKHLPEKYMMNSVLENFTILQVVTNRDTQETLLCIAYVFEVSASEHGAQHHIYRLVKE

Compound	IC50 [5]	other results
CNC(=O)c1ccc(OCCO)c(F)c1-c1c(Cl)c(F)cc2c1C[C@@](CN)(c1ccccc1)O2 (atropisomer, axis not shown) [Example 44, 2-((2S,4S)-2-(Aminomethyl)-5-chloro-6-fluoro-2-phenyl-2,3-dihydrobenzofuran-4-yl)-3-fluoro-4-(2-hydroxyethoxy)-N-methylbenzamide]		IC50 [1]: 0.069 µM; GI50 [2]: 0.109 µM; GI50 [3]: > 10 µM; IC50 [4]: > 10 µM
CO[C@H]1c2c(cc(F)c(Cl)c2-c2c(C(N)=O)ccc(OCCO)c2F)O[C@]1(CN)c1ccccc1 (atropisomer, axis not shown) [Example 101, 2-((2S,3S,4S)-2-(Aminomethyl)-5-chloro-6-fluoro-3-methoxy-2-phenyl-2,3-dihydrobenzofuran-4-yl)-3-fluoro-4-(2-hydroxyethoxy)benzamide]		IC50 [1]: 0.067 µM; GI50 [2]: 0.106 µM; GI50 [3]: > 10 µM; IC50 [4]: > 10 µM
COc1ccc(C(N)=O)c(-c2c(Cl)ccc3c2OC(CN)(c2ccccc2)C3)c1F (single isomer, unassigned) [Example 132, 2-(2-(Aminomethyl)-6-chloro-2-phenyl-2,3-dihydrobenzofuran-7-yl)-3-fluoro-4-methoxybenzamide]	2.08 µM	
NCC1(c2ccccc2)Oc2ccc(Cl)c(-c3c(F)cccc3C(N)=O)c2O1 (single isomer, unassigned) [Example 133, 2-(2-(Aminomethyl)-5-chloro-2-phenylbenzo[d][1,3]dioxol-4-yl)-3-fluorobenzamide]	0.695 µM	
COc1ccc(C(N)=O)c(-c2c(Cl)c(F)cc3c2C[C@](c2ccccc2)(C2COCCN2)O3)c1F (single isomer, unassigned) [Example 163]	0.13 µM	
N#Cc1ccc2c(c1-c1ccccc1)C[C@@](CN[C@H]1CC[C@H](O)CC1)(c1ccccc1)O2 [Example 130, (S)-2-((((trans)-4-Hydroxycyclohexyl)amino)methyl)-2,4-diphenyl-2,3-dihydrobenzofuran-5-carbonitrile]	0.797 µM	
CNC(=O)c1cnc(OCC(=O)O)c(F)c1-c1c(Cl)c(F)cc2c1C[C@](c1ccccc1)([C@@H]1CCCN1)O2 [Example 156, 2-((4-((2S,4S)-5-Chloro-6-fluoro-2-phenyl-2-((S)-pyrrolidin-2-yl)-2,3-dihydrobenzofuran-4-yl)-3-fluoro-5-(methylcarbamoyl)pyridin-2-yl)oxy)acetic acid]	0.011 µM	
CNC(=O)c1cnc(O)c(F)c1-c1c(Cl)c(F)cc2c1C[C@](c1ccccc1)([C@@H]1CCCN1)O2 [Example 157, 4-((2S,4S)-5-chloro-6-fluoro-2-phenyl-2-((S)-pyrrolidin-2-yl)-2,3-dihydrobenzofuran-4-yl)-5-fluoro-6-hydroxy-N-methylnicotinamide]	0.075 µM	
Fc1cc2c(c(-c3ccccc3)c1Cl)C[C@](c1ccccc1)([C@@H]1C[C@@H](F)CN1)O2 [Example 160, (2S,4R)-2-((S)-5-chloro-6-fluoro-2,4-diphenyl-2,3-dihydrobenzofuran-2-yl)-4-fluoropyrrolidine]	4.4 µM	

The next lines start with results.

IC50 [5]	Compound	other results
0.021 µM	CNC(=O)[C@H]1CC[C@H](NC[C@@]2(c3ccccc3)Cc3c(ccc(Cl)c3-c3c(F)cccc3C(N)=O)O2)CC1 (relative stereo) [Example 139a, 2-((2S,4S)-5-Chloro-2-((((trans)-4-(methylcarbamoyl)cyclohexyl)amino)methyl)-2-phenyl-2,3-dihydrobenzofuran-4-yl)-3-fluorobenzamide]	
0.011 µM	CNC(=O)[C@H]1CC[C@@H](NC[C@@]2(c3ccccc3)Cc3c(ccc(Cl)c3-c3c(F)cccc3C(N)=O)O2)CC1 (relative stereo) [Example 139b, 2-((2S,4S)-5-chloro-2-((((cis)-4-(methylcarbamoyl)cyclohexyl)amino)methyl)-2-phenyl-2,3-dihydrobenzofuran-4-yl)-3-fluorobenzamide]	
< 0.001 µM	NC(=O)c1ccc(OC(F)F)c(F)c1-c1c(Cl)c(F)cc2c1C[C@@](CNC1CCC(O)(CF)CC1)(c1ccccc1)O2 (single isomer, unassigned) [Example 55a]	
0.002 µM	NC(=O)c1ccc(OC(F)F)c(F)c1-c1c(Cl)c(F)cc2c1C[C@@](CNC1CCC(O)(CF)CC1)(c1ccccc1)O2 (single isomer, unassigned) [Example 55b]	
0.003 µM	CS(=O)(=O)NC1CCC(NC[C@@]2(c3ccccc3)Cc3c(cc(F)c(Cl)c3-c3c(C(N)=O)ccc(OC(F)F)c3F)O2)CC1 (single isomer, unassigned) [Example 57a]	
0.006 µM	CS(=O)(=O)NC1CCC(NC[C@@]2(c3ccccc3)Cc3c(cc(F)c(Cl)c3-c3c(C(N)=O)ccc(OC(F)F)c3F)O2)CC1 (single isomer, unassigned) [Example 57b]	
0.006 µM	NC(=O)c1ccc(OC(F)F)c(F)c1-c1c(Cl)c(F)cc2c1C[C@@](CNC1CCC3(CCC(=O)N3)CC1)(c1ccccc1)O2 (single isomer, unassigned) [Example 59a]	
0.005 µM	NC(=O)c1ccc(OC(F)F)c(F)c1-c1c(Cl)c(F)cc2c1C[C@@](CNC1CCC3(CCC(=O)N3)CC1)(c1ccccc1)O2 (single isomer, unassigned) [Example 59b]	
0.008 µM	NC(=O)c1ccc(OC(F)F)c(F)c1-c1c(Cl)c(F)cc2c1C[C@@](CNC1CCC(CO)CC1)(c1ccccc1)O2 (single isomer, unassigned) [Example 61a]	
0.01 µM	NC(=O)c1ccc(OC(F)F)c(F)c1-c1c(Cl)c(F)cc2c1C[C@@](CNC1CCC(CO)CC1)(c1ccccc1)O2 (single isomer, unassigned) [Example 61b]	
0.007 µM	NC(=O)c1ccc(OC(F)F)c(F)c1-c1c(Cl)c(F)cc2c1C[C@@](CNC1CC3(CC(O)C3)C1)(c1ccccc1)O2 (single isomer, unassigned) [Example 85b]	
0.034 µM	NC[C@@]1(c2ccccc2)Cc2c(ccc(Cl)c2-c2c(F)cccc2C(N)=O)O1 (stereo in doubt) [Example 4a, 2-((2S*,4S*)-2-(Aminomethyl)-5-chloro-2-phenyl-2,3-dihydrobenzofuran-4-yl)-3-fluorobenzamide]	
> 100 µM	NC[C@]1(c2ccccc2)Cc2c(ccc(Cl)c2-c2c(F)cccc2C(N)=O)O1 (stereo in doubt) [Example 4b, 2-((2S*,4R*)-2-(aminomethyl)-5-chloro-2-phenyl-2,3-dihydrobenzofuran-4-yl)-3-fluorobenzamide]	
0.016 µM	NCCOc1cccc(F)c1-c1c(Cl)ccc2c1C[C@@](CN)(c1ccccc1)O2 [Example 3a, 2-(2-((2S,4S)-2-(Aminomethyl)-5-chloro-2-phenyl-2,3-dihydrobenzofuran-4-yl)-3-fluorophenoxy)ethanamine]	
18 µM	NCCOc1cccc(F)c1-c1c(Cl)ccc2c1C[C@](CN)(c1ccccc1)O2 [Example 3b, 2-(2-((2R,4R)-2-(aminomethyl)-5-chloro-2-phenyl-2,3-dihydrobenzofuran-4-yl)-3-fluorophenoxy)ethanamine]	
> 100 µM	NC[C@@]1(c2ccccc2)Cc2c(cc(F)c(Cl)c2-c2c(F)cccc2C(N)=O)O1 [Example 32b, 2-((2S,4R)-2-(aminomethyl)-5-chloro-6-fluoro-2-phenyl-2,3-dihydrobenzofuran-4-yl)-3-fluorobenzamide]	
0.004 µM	NC(=O)c1ccc(OC(F)F)c(F)c1-c1c(Cl)c(F)cc2c1C[C@@](CNC1CC3(CC(O)C3)C1)(c1ccccc1)O2 (stereo partly drawn) [Example 85a, 2-((2S,4S)-5-Chloro-6-fluoro-2-(((6-hydroxyspiro[3.3]heptan-2-yl)amino)methyl)-2-phenyl-2,3-dihydrobenzofuran-4-yl)-4-(difluoromethoxy)-3-fluorobenzamide]	

From patent US12083101B2, “Biaryl derivatives as YAP/TAZ-TEAD protein-protein interaction inhibitors” (Novartis AG, priority 2020, dated 2024)
